# Measurements published in patent US5344841A, “Bis-(hydroxylakylamino)-anthraquinone inhibitors of protein kinase C” (Sphinx Pharmaceuticals Corporation, priority 1992, dated 1994).
# Experiments:
# NHEK human keratinocytes = assay: Human keratinocyte inhibition, 3H-thymidine incorporation; type: cell-based
# Procedure: Human tumor cells are trypsinized (0.05% trypsin, GIBCO), counted with a hemacytometer and seeded at a concentration of 10,000 cells/well in a 96 well microtiter plate. After allowing cells to attach to the surface overnight, the culture medium is aspirated and replaced with 100 μl of fresh medium. Test agents are diluted to determine dose response at 2× final concentration and added in quadruplicate at 100 μl/well to bring the total volume of each well to 200 μl. The microtiter plate is then incubated at 37° C. 5% CO2 overnight (18-24 hrs) before ^3 H-thymidine is added at a concentration of 0.5 μCi/well in 50 μl culture medium. The plate is incubated again for 4 hrs under the same conditions as above. […] Cells are checked microscopically to determine detachment from surfaces, and plates are then harvested with a cell harvester (PHD, Cambridge Technology, Inc.) Filter papers corresponding to wells are placed in scintillation vials and counted to determine the amount of ^3 H-thymidine incorporated by the cells. […]
# Proliferating keratinocytes (NHEK cells purchased from Clonetics, Inc. San Diego, Calif.) in second passage were grown in Keratinocyte Growth Medium (KGM) (Clonetics, Inc.) Cells were trypsinized with 0.025% trypsin (Clonetics), counted with a hemacytometer (Scientific Products), and seeded at a concentration of 2,500 cells/well in a 96 well microtiter plate. […]
# [1] = test system: 8226/ADR adriamycin resistant line of 8226 cells; assay: Human tumor growth inhibition, 3H-thymidine incorporation, 8226/ADR; type: cell-based; conditions: 8226/ADR vs 8226
# Source text: (§1) MCF-7 a human breast tumor cell line, and MCF-7/ADR an adriamycin resistant line of MCF-7 cells were obtained from the National Cancer Institute, Frederick, Md. NHEK a human keratinocyte cell line was obtained from Clonetic Corp., San Diego, Calif. 8226 a human myeloma cell line, 8226/MT a Mitoxantrone resistant line of 8226 cells, and 8226 ADR an adriamycin resistant line of 8226 cells were obtained from Dr. Bill Dalton, Arizona Cancer Center, Tuscon, Ariz.
# (§2) Human tumor cells are trypsinized (0.05% trypsin, GIBCO), counted with a hemacytometer and seeded at a concentration of 10,000 cells/well in a 96 well microtiter plate. After allowing cells to attach to the surface overnight, the culture medium is aspirated and replaced with 100 μl of fresh medium. Test agents are diluted to determine dose response at 2× final concentration and added in quadruplicate at 100 μl/well to bring the total volume of each well to 200 μl. The microtiter plate is then incubated at 37° C. 5% CO2 overnight (18-24 hrs) before ^3 H-thymidine is added at a concentration of 0.5 μCi/well in 50 μl culture medium. The plate is incubated again for 4 hrs under the same conditions as above. Supernatant is then aspirated and 50 μl trypsin (0.05%, GIBCO) is added to each well. Cells are checked microscopically to determine detachment from surfaces, and plates are then harvested with a cell harvester (PHD, Cambridge Technology, Inc.) Filter papers corresponding to wells are placed in scintillation vials and counted to determine the amount of ^3 H-thymidine incorporated by the cells. Test agent response is compared to a positive control of cell wells with culture media only to determine the IC50. IC50 is the concentration of test compound required to inhibit fifty percent of the incorporation of ^3 H-thymidine into proliferating cells not exposed to test agent. Uptake of ^3 H-thymidine is a standard test for measuring the metabolism of cells. Cells which are actively proliferating take up ^3 H-thymidine, whereas cells that are not proliferating take up ^3 H-thymidine at much slower rates or not at all. Test agents that inhibit the uptake of ^3 H-thymidine thus slow the growth of cells.
# [2] = test system: 8226/ADR adriamycin resistant line of 8226 cells; assay: as above; type: cell-based; conditions: 3H-thymidine uptake
# Melanotic Melanoma B16 = assay: Melanotic melanoma B16 test in mice, survival time; type: in vivo, mouse; conditions: 100 mg/kg ip once daily for nine days
# Procedure: Melanotic Melanoma B16 Test. The animals used were B6 C3 F1 mice, all of one sex, weighing a minimum of 18 g for males and 17 g for females and all within a 4 g weight range at the start of the test. The test group comprised 9 or 10 mice. The tumor was implanted in each of the test mice by the subcutaneous injection of 0.5 ml of a tumor homogenate prepared by homogenizing a 1 g portion of melanotic melanoma in 10 ml of cold physiological saline. Compound 1a-1 suspended in hydroypropylcellulose was administered intraperitoneally at a dose of 100 mg/kg once daily for nine consecutive days staring on Day 1 relative to the day of tumor inoculation (Day 0). The control mice received injections of hydroxyproplcellulose vehicle only. The mice were weighed and survivors were recorded on a regular basis for sixty days. The median survival times and the ratio of the median survival times for treated (T) to control (C) mice were calculated. The median survival time of the nontreated rumored mice ranged from 15 to 17 days. Drug effectiveness was assessed on the basis of survival time. Results were expressed as a percentage of the control survival time (Survival Time T/C×100%; T=test animals; C=control animals). The criterion for effectiveness was determined by T/C×100≥125 percent.
# [3] = test system: 8226/MT Mitoxantrone resistant line of 8226 cells; assay: Human tumor growth inhibition, 3H-thymidine incorporation, 8226/MT
# [4] = test system: 8226 human myeloma cell line; assay: Human tumor growth inhibition, 3H-thymidine incorporation, 8226; type: cell-based; conditions: 3H-thymidine uptake, read-out: IC50 8226
# Source text: as §1, §2
# P388 murine leukemia = assay: P388 leukemia tumor assay in mice, survival time; type: in vivo, mouse; conditions: for % T/C p388 Leukemia: survival time
# Source text: P388 Leukemia Tumors. Mice were young adult, pathogen-free, BALA/c×DBA/2 F1 (i.e., CD2F1) females purchased from Charles River Laboratories. The tumor line was the P388 murine leukemia, ascites form, obtained from the National Cancer Institute (NCI) Tumor Repository (Frederick, Md.). The tumor was maintained in the serial passage in mice by periodic intraperitoneal (ip) implantation. For this experiment, 10^6 hemacytometer-counted P388 murine leukemia cells were implanted ip into mice on Day 0. The mice were randomized into one untreated control group of 20 and 15 test groups of six mice each. All drug treatment was delivered ip on the basis of the average body weight of each group. […] Body weights were recorded on Days 1, 5, 9, 11, and 18. Deaths were recorded daily. Dying mice were necropsied, and the presence or absence of ascites or splenomegaly was recorded. Drug effectiveness was assessed on the basis of the survival time. Results were expressed as a percentage of the control survival time (Survival Time=T/C×100%; T=test animals; C=control animals). The criterion for effectiveness was determined by: T/C×100≥125 percent.
# [5] = test system: MCF-7 human breast tumor cell line; assay: Human tumor growth inhibition, 3H-thymidine incorporation, MCF-7; type: cell-based; conditions: 3H-thymidine uptake; read-out: IC50 MCF-7
# Source text: as §1, §2
# [6] = test system: MCF-7/ADR adriamycin resistant line of MCF-7 cells; assay: Human tumor growth inhibition, 3H-thymidine incorporation, MCF-7/ADR; type: cell-based; conditions: NCI/ADR-RES, 3H-thymidine uptake
# [7] = test system: MCF-7/ADR adriamycin resistant line of MCF-7 cells; assay: as above; type: cell-based; conditions: MCF-7/ADR vs MCF-7
# Source text: as §1, §2
smiles,measurement,setting,value
CCN(CC)CC(O)CNc1ccc(NCC(O)CCl)c2c1C(=O)c1ccccc1C2=O (stereo not drawn) [Compound 1a-1],IC50,NHEK human keratinocytes,160 nM
same,Resistance Ratio (8226/ADR),[1],0.08
same,IC50,[2],80 nM
same,% T/C (B16 median survival time),Melanotic Melanoma B16,129%
same,effect on survival time of mice (in words),Melanotic Melanoma B16,effective for increasing survival time of the mice
same,Resistance Ratio (8226/MT),[3]; 8226/MT vs 8226,0.24
same,IC50,"[3]; Homo sapiens, read-out: IC50 8226/MT",240 nM
same,ratio of IC50 for 8226 cells to IC50 for 8226/MT cells,[3]; text wording of ratio,0.24
same,IC50,[4],1000 nM
same,% T/C p388 Leukemia,"P388 murine leukemia; 67 mg/kg, Q1D × 9, ip",140%
same,% T/C p388 Leukemia,"P388 murine leukemia; 150 mg/kg Q1D × 9, ip",130%
same,survival time of mice (in words),P388 murine leukemia; all dosages and schedules,effectively increased the survival time
same,IC50,[5],250 nM
same,IC50,[6],500 nM
same,Resistance Ratio (IC50 MCF-7/ADR to IC50 MCF-7),[7],2
